Where “and” joins values, the source holds several entries; their conditions need not be identical. Equal values may be shown once.

In one assay the target is CaMKIIα WT (Homo sapiens, UniProt Q9UQM7). Put plainly: In vitro kinase reactions with CaMKII WT ± NM-PP1 (pT286, pS831). It is filed as biochemical. The procedure:
Fig. 4 The CaMKII mutation F89G impairs ATP binding but binds the ATP-competitive inhibitor NM-PP1 that restores GluN2B binding and LTP-induced synaptic translocation. Data are presented as mean values ± s.e.m. a, Schematic of the pharmacogenetic method of ATP-competitive CaMKII inhibition; enlargement of the CaMKII ATP-binding pocket by the F89G mutation allows for selective binding of the ATP-competitive inhibitor NM-PP1. b, Immunoblots of in vitro kinase reactions at 30 °C including GFP–CaMKII WT, K42M and F89G with GST–GluA1-c tail. […] Correlation indices were measured before and after Ionomycin-induced colocalization of GFP–CaMKII (WT, K42M and F89G) with mCherry-2BC, represented as change in the correlation index (vehicle: n = 22, 17, 12 cells; NM-PP1: n = 20, 24, 13 cells; one-way ANOVA, Tukey’s multiple comparisons test). […] CaMKII synaptic enrichment was measured before and after cLTP (n = 13, 14, 14 cells; RM two-way ANOVA with Šídák’s multiple comparisons test). […] CaMKII synaptic enrichment was measured before and after cLTP (n = 7, 6, 7 cells; RM two-way ANOVA with Šídák’s multiple comparisons test). […]
CaMKII-mediated phosphorylation of GluA1 S831 or GluN2B S1303 was measured by in vitro kinase reaction with a purified GST–GluA1 C-terminal tail or GST-GluN2B C-terminal tail. […]

The target in a further assay is CaMKIIα(h) (Homo sapiens, UniProt Q9UQM7). The assay is described as follows: Kinase selectivity panel (residual activity at 1 μM). It counts as biochemical. The note with it: inhibitor at 1 μM; read-out: residual kinase activity in % of maximal activity.
In another assay the target is MAPK1(h) (Homo sapiens, UniProt P27361). The description is as above. The note with it: inhibitor at 1 μM; read-out: residual kinase activity in % of maximal activity. It is filed as biochemical.
In the next assay the target is SAPK2a(h) (Homo sapiens, UniProt Q16539). Described as above. To be noted: inhibitor at 1 μM. It is filed as biochemical.
In assay [1] the target is purified CaMKIIα binding to GST–GluN2B-c S1303A (Homo sapiens, UniProt Q9UQM7). Put plainly: CaMKII binding to immobilized GST–GluN2B-c S1303A in vitro.
A further assay concerns the target PKCα(h) (Homo sapiens, UniProt P17252). The assay is described as follows: Kinase selectivity panel (residual activity at 1 μM). The note with it: inhibitor at 1 μM; read-out: residual kinase activity in % of maximal activity. It counts as biochemical.
The target of another assay is PKCδ(h) (Homo sapiens, UniProt Q05655). The description is as above. It counts as biochemical. The note with it: inhibitor at 1 μM; read-out: residual kinase activity in % of maximal activity.
PKCδ(h), sequence (Q05655 whole entry): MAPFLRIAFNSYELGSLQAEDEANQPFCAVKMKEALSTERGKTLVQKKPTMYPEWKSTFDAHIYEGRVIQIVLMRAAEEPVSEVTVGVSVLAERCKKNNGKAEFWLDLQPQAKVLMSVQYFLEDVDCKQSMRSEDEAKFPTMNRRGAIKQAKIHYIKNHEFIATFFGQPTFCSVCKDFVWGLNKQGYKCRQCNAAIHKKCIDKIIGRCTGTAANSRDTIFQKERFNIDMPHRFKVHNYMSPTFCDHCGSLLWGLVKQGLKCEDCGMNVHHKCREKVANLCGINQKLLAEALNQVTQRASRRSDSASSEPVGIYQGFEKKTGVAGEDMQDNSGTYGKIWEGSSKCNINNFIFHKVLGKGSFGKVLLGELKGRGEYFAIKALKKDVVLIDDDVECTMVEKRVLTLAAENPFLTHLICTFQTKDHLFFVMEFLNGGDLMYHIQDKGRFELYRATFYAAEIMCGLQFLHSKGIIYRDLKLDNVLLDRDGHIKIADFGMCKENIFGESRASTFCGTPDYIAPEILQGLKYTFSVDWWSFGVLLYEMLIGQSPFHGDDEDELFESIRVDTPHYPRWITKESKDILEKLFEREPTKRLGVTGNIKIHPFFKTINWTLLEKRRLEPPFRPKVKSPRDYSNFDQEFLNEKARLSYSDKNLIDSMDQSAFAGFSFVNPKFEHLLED

MAPK1(h), sequence (P27361 whole entry): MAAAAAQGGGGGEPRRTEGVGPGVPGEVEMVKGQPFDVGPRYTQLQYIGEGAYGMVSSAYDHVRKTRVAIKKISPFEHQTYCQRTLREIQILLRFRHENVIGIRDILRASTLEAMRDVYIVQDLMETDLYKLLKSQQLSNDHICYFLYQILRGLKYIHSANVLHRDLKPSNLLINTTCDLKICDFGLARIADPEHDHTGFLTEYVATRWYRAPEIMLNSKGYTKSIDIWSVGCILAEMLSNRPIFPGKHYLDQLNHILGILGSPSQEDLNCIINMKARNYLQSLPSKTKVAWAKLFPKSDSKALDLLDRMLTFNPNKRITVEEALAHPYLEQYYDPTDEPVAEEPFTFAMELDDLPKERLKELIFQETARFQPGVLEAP
CaMKIIα(h), sequence (Q9UQM7 whole entry): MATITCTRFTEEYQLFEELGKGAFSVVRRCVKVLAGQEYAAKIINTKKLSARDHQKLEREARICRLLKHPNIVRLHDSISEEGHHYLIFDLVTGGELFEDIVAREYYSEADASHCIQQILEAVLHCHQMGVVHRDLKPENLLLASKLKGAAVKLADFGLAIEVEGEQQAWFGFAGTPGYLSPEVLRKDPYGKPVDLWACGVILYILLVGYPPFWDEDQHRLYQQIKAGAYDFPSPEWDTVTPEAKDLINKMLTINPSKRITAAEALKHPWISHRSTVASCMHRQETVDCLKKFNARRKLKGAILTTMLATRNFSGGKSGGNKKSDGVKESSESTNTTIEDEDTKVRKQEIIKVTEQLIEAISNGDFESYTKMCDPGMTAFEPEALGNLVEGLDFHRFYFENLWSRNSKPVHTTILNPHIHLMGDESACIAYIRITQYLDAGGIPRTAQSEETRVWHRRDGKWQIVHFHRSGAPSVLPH
SAPK2a(h), sequence (Q16539 whole entry): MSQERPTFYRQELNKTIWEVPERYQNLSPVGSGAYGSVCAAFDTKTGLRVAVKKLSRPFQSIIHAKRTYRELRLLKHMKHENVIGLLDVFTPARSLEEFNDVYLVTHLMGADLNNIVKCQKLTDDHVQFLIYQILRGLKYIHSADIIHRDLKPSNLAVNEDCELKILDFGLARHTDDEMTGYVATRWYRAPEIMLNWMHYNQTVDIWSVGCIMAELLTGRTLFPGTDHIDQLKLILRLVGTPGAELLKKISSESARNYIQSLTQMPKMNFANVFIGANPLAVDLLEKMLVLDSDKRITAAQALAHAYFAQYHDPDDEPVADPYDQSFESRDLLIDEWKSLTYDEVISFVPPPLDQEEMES

On to `CC(C)(C)n1nc(Cc2cccc3ccccc23)c2c(N)ncnc21` [NM-PP1], for which, on CaMKIIα WT, the “effect on pT286 for CaMKII WT” value is “did not affect”.
Consider `NCCNc1cccc(-c2ccnc3[nH]c4ccccc4c23)c1` [AS283], for which the remaining activity at 1 µM worked out at 3% at CaMKIIα(h), 102% on MAPK1(h), 49% at PKCα(h) and 39% at PKCδ(h). Further, the “residual kinase activity in % of maximal activity” value on SAPK2a(h) turned out to be 95%. Also, the “bound CaMKIIα (immunoblot, relative)” value in assay [1] (Ca2+/CaM, 10 μM AS283, no nucleotide, GST–GluN2B-c S1303A) is 4.303 and 5.73 and 6.682. Moreover, the “enhancing effect on CaMKII binding compared with ATP” value in assay [1] (GluN2B S1303A mutant) was “indistinguishable”.

Values taken from paper PMC10482691, “LTP induction by structural rather than enzymatic functions of CaMKII” (Nature, 2023).
